Measurements from PMC10135315 (Antioxidants, 2023).
Like-named read-outs stand apart in the source and are kept apart here.

How the values were obtained:
[1] = biological target: T1, xanthine oxidase from bovine milk (Bos taurus, UniProt P80457); experiment: Steady-state determination of XO activity (uric acid formation at 295 nm), dose-dependent inhibition; format: biochemical; details: 75 µM xanthine; for IC50: steady-state determination, 25 °C, pH 7.8
T1 construct: xanthine oxidase from bovine milk (0.5 U/mg); purchased Sigma-Aldrich (St. Louis, MO, USA); host or cells: bovine milk (natural source)
Method: The activity of XO was measured spectrophotometrically at 25 °C by monitoring the increase of absorbance at 295 nm due to the formation of uric acid, using a Cary 100 UV-Vis Spectrophotometer (Agilent Technologies, Milan, Italy), essentially, as previously reported. […] The DMSO concentration carried over by the inhibitor was 0.5% (v/v); an identical concentration of DMSO was used in the absence of inhibitor. The reaction started with the addition of XO and was followed kinetically up to 30 s by continuously monitoring the absorbance. The initial rate of uric acid formation was derived from the linear part of the kinetics and expressed as ΔE/min. The effect of each inhibitor was evaluated through the ratio of residual XO activity measured in the presence of each inhibitor over that measured in the absence of inhibitor.

[2] = biological target: T1, xanthine oxidase from bovine milk; experiment: Kinetic measurements of XO activity (Michaelis-Menten / Lineweaver-Burk); format: biochemical; details: for Ki / Vmax in presence of inhibitor: 4-30 µM xanthine; for Ki: from increase of KM for xanthine, competitive model; for Mechanism of XO inhibition: kinetic analysis; for Vmax in presence of inhibitor: pooled over the tested inhibitor concentrations
Method: The inhibition power of the various compounds and their mechanism of inhibition were assessed through kinetic measurements of the XO activity. To this aim, each assay was carried out in a 500 µL final volume reaction mixture, containing 4–30 µM xanthine dissolved in buffer A in the absence or presence of a fixed concentration of the various inhibitors. The reaction started with the addition of XO and was followed as indicated in steady-state assays. The kinetic parameters of the reaction, KM for the substrate and Vmax of the reaction, were derived either from the direct non-linear interpolation in the Michaelis–Menten hyperbolic equation of the initial rate of uric acid formation vs. the xanthine concentration or from a double reciprocal transformation of the kinetic data in Lineweaver–Burk plots. […] Therefore, the inhibition constant (Ki) was obtained from the increase of KM for xanthine in the presence of the inhibitor, according to the KM′ = KM•{1 + ([I]/Ki)} equation, where KM′ represents the KM for xanthine measured in the presence of the concentration [I] of the inhibitor.

[3] = biological target: T1, xanthine oxidase from bovine milk; experiment: Reversibility of XO inhibition by dilution method; format: biochemical
Method: The reversibility of the inhibition mechanism was evaluated through a dilution method of a solution containing XO and inhibitor. To this aim, a sample of XO was incubated at 25 °C in the absence or presence of a concentrated solution of inhibitor. Aliquots of these mixtures were withdrawn at different times and 4-fold diluted through the addition of a solution containing the substrate xanthine. The samples were then immediately assayed for XO activity as previously indicated for the steady-state determinations.

XO = details: cited from earlier work
[4] = known XO inhibitors co-crystallised into XO, no reference given

T1 sequence (P80457 whole entry): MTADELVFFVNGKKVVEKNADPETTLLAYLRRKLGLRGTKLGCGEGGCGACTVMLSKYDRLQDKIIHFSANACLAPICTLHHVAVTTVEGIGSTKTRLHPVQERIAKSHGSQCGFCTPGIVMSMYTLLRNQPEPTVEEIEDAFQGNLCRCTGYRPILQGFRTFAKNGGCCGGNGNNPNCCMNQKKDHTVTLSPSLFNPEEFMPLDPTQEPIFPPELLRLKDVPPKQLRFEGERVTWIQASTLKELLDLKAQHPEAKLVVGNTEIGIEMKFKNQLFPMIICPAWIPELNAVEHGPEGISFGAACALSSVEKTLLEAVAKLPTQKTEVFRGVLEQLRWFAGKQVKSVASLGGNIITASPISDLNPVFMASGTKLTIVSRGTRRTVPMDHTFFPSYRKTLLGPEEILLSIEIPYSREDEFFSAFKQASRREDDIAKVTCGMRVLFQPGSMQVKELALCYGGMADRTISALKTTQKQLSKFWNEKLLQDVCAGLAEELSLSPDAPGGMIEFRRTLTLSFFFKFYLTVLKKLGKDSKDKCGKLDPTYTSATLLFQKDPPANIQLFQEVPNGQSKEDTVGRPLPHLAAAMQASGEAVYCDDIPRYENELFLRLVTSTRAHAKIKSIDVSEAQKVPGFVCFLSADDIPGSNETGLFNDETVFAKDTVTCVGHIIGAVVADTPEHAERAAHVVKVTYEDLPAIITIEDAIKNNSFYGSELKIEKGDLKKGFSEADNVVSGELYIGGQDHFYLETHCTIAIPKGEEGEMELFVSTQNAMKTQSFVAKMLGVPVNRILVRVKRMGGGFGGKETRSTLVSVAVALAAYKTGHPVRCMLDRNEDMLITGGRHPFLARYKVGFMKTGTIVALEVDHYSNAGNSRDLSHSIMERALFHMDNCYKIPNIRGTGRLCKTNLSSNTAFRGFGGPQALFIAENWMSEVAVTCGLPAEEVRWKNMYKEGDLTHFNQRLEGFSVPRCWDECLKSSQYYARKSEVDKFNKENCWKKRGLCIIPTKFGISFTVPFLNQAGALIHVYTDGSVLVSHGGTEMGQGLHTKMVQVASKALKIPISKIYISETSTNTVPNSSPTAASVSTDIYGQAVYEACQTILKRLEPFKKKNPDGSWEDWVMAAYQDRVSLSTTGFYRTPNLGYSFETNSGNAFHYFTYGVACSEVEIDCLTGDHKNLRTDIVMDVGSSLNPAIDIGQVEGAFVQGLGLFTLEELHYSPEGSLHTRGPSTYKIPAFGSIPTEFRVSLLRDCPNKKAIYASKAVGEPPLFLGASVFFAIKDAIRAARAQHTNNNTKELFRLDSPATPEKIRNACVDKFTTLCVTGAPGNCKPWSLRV

| Compound | Inhibition profile of XO activity [1] | IC50 [1] [µM] | Ki [2] [µM] | Mechanism of XO inhibition [2] | Vmax in presence of inhibitor [2] | Reversibility of inhibition ([3]; preincubation with XO at 25 °C up to 30 min, then 4-fold dilution (ALS-28: 60 µM to 15 µM)) | Time-dependent reduction of XO activity ([3]; 60 µM inhibitor, 25 °C, up to 30 min) | Inhibition mechanism (XO) | Inhibition mechanism (XO; [4]) |
| --- | --- | --- | --- | --- | --- | --- | --- | --- | --- |
| O=C(O)c1cc2ccc(Br)cc2[nH]1 [ALS-1] | dose-dependent inhibition | 82 | 41 ± 14 | competitive inhibitors | 0.087 ± 0.004 (n = 2) ΔE/min |  |  |  |  |
| O=C(O)c1cc(-c2cccc(F)c2)[nH]n1 [ALS-8] | dose-dependent inhibition | 30 | 4.5 ± 1.5 | competitive inhibitors | 0.093 ± 0.007 (n = 4) ΔE/min |  |  |  |  |
| N#Cc1cc(-c2n[nH]c(-c3ccncc3)n2)ccn1 [FYX-051, topiroxostat] |  |  |  |  |  |  |  | hybrid-type inhibition mechanism |  |
| Cc1nc(-c2ccc(OCC(C)C)c(C#N)c2)sc1C(=O)O [TEI-6720, febuxostat] |  |  |  |  |  |  |  | mixed-type inhibition |  |
| O=c1c(O)c(-c2ccc(O)c(O)c2)oc2cc(O)cc(O)c12 [quercetin] |  |  |  |  |  |  |  |  | competitive |
| O=C(O)c1ccccc1O [salicylic acid] |  |  |  |  |  |  |  |  | competitive inhibitor |

The next lines start with results.

| Inhibition profile of XO activity [1] | IC50 [1] [µM] | Ki [2] [µM] | Mechanism of XO inhibition [2] | Vmax in presence of inhibitor [2] | Reversibility of inhibition ([3]; preincubation with XO at 25 °C up to 30 min, then 4-fold dilution (ALS-28: 60 µM to 15 µM)) | Compound | Time-dependent reduction of XO activity ([3]; 60 µM inhibitor, 25 °C, up to 30 min) | Inhibition mechanism (XO) | Inhibition mechanism (XO; [4]) |
| --- | --- | --- | --- | --- | --- | --- | --- | --- | --- |
| dose-dependent inhibition | 64 | 23 ± 9 | competitive inhibitors | 0.086 ± 0.003 (n = 4) ΔE/min |  | Brc1cncc(-c2nn[nH]n2)c1 [ALS-15] |  |  |  |
| dose-dependent inhibition | 18 | 2.7 ± 1.5 | competitive inhibitors | 0.113 ± 0.007 (n = 4) ΔE/min | reversible inhibitor | O=C(O)c1cc(-c2ccc(Cl)cc2)ncn1 [ALS-28] | no time-dependent reduction of XO activity |  |  |
